Structures are written as SMILES.

Regarding `*C(=O)Nc1ccc(Cc2ccc(NC(=O)c3ccc4c(c3)C(=O)N(c3ccc(NC(=O)Nc5ccc(N6C(=O)c7ccc(*)cc7C6=O)cc5)cc3)C4=O)cc2)cc1` (repeat unit), the glass transition temperature came to 211.00 °C. Compound `*C(=O)Nc1ccc(Cc2ccc(NC(=O)c3ccc4c(c3)C(=O)N(c3ccc(Oc5ccc(N6C(=O)c7ccc(*)cc7C6=O)cc5)cc3)C4=O)cc2)cc1` (repeat unit) registered a glass transition temperature of 270.00 °C. Under `*C(=O)Nc1ccc(Cc2ccc(NC(=O)c3ccc4c(c3)C(=O)N(c3ccc(S(=O)(=O)c5ccc(N6C(=O)c7ccc(*)cc7C6=O)cc5)cc3)C4=O)cc2)cc1` (repeat unit) stands 324.00 °C. The same measure for `*C(=O)c1ccc(C(=O)N2CC(C)N(*)CC2C)cc1` (repeat unit): 350.00 °C; for `*C(=O)c1ccc2c(c1)C(=O)N(c1ccc(C(=O)Nc3ccc(N4C(=O)c5ccc(*)cc5C4=O)cc3)cc1)C2=O` (repeat unit): 300.00 °C; for `*C(=O)c1ccc2c(c1)C(=O)N(c1ccc(C(=O)Nc3ccc(Oc4ccc(NC(=O)c5ccc(NC(=O)Nc6ccc(Cc7ccc(NC(=O)Nc8ccc(C(=O)Nc9ccc(Oc%10ccc(NC(=O)c%11ccc(N%12C(=O)c%13ccc(*)cc%13C%12=O)cc%11)cc%10)cc9)cc8)cc7)cc6)cc5)cc4)cc3)cc1)C2=O` (repeat unit): 229.00 °C. The same measure for `*C(=O)c1ccc2c(c1)C(=O)N(c1ccc(NC(=O)c3cccc(C(=O)Nc4ccc(N5C(=O)c6ccc(*)cc6C5=O)cc4)c3)cc1)C2=O` (repeat unit): 247.00 °C; for `*C(=O)c1ccc2c(c1)C(=O)N(c1cccc(C(=O)Nc3ccc(N4C(=O)c5ccc(*)cc5C4=O)cc3)c1)C2=O` (repeat unit): 308.00 °C. `*CCCCCCCCCCCCOC(=O)Nc1ccc(Cc2ccc(NC(=O)O*)cc2)cc1` (repeat unit) returned a glass transition temperature of 43.00 °C. The compound `*CCCCCCCOC(=O)Nc1ccc(Cc2ccc(NC(=O)O*)cc2)cc1` (repeat unit) came in with a glass transition temperature of 84.00 °C.

`*CCN(CCCCCCOc1ccc(/N=N/c2ccccc2)cc1)CCOC(=O)Nc1ccc(Cc2ccc(NC(=O)O*)cc2)cc1` (repeat unit) yielded a glass transition temperature of 44.00 °C. Under `*CCN(CCCCCOc1ccc(/N=N/c2ccccc2)cc1)CCOC(=O)Nc1ccc(Cc2ccc(NC(=O)O*)cc2)cc1` (repeat unit) stands 59.60 °C; under `*CCOC(=O)Nc1ccc(CCc2ccc(NC(=O)O*)cc2)cc1` (repeat unit), 116.90 °C. The same measure for `*CCOC(=O)Nc1ccc(Cc2ccc(NC(=O)OCCOc3ccc(C4(c5ccc(O*)cc5)c5ccccc5-c5ccccc54)cc3)cc2)cc1` (repeat unit): 152.00 °C; for `*CCOCCOCCOCCOC(=O)Nc1ccc(Cc2ccc(NC(=O)O*)cc2)cc1` (repeat unit): 37.00 °C. The same measure for `*COC(=O)Nc1ccc(Cc2ccc(NC(=O)OCc3ccc(*)o3)cc2)cc1` (repeat unit): 81.00 °C.

In turn, `*Cc1cccc(COC(=O)Nc2ccc(Cc3ccc(NC(=O)O*)cc3)cc2)c1` (repeat unit) displayed a glass transition temperature of 106.00 °C.

Regarding `*NC(=O)Nc1ccc(Cc2ccc(NC(=O)Nc3cccc(*)n3)cc2)cc1` (repeat unit), the glass transition temperature was 206.50 °C.

In turn, `*Nc1cc(NC(=O)Nc2ccc(Cc3ccc(NC(*)=O)cc3)cc2)cc(C(=O)Nc2ccc3c(c2)C(=O)c2ccccc2C3=O)c1` (repeat unit) gave a glass transition temperature of 168.00 °C. Under `*Nc1cc(NC(=O)Nc2ccc(Cc3ccc(NC(*)=O)cc3)cc2)cc(C(=O)Nc2cccc3c2C(=O)c2ccccc2C3=O)c1` (repeat unit) stands 178.00 °C; under `*Nc1ccc(Cc2ccc(NC(=O)c3cc(C(*)=O)cc(N4C(=O)C5CC=CCC5C4=O)c3)cc2)cc1` (repeat unit), 286.00 °C; under `*Nc1ccc(NC(=O)c2cc(C(*)=O)cc(S(=O)(=O)c3ccccc3)c2)cc1` (repeat unit), 308.00 °C. Turning to `*Nc1ccc(NC(=O)c2ccc(C(*)=O)cc2)cc1` (repeat unit), the glass transition temperature worked out at 295.00 °C. The same measure for `*Nc1ccc(NC(=O)c2ccc(C(=O)c3ccc(C(*)=O)c(C(=O)OCC)c3)cc2C(=O)OCC)cc1` (repeat unit): 275.00 °C; for `*Nc1ccc(NC(=O)c2ccc(NC(=O)c3cc(NC(=O)C45CC6CC(CC(C6)C4)C5)cc(C(*)=O)c3)cc2)cc1` (repeat unit): 365.00 °C.

`*Nc1cccc(CCc2ccc(NC(=O)c3cccc(C(*)=O)c3)cc2)c1` (repeat unit) returned a glass transition temperature of 203.00 °C. Under `*OC(c1ccco1)C(OC(=O)Nc1ccc(Cc2ccc(NC(*)=O)cc2)cc1)c1ccco1` (repeat unit) stands 74.00 °C; under `*Oc1ccc(/N=C/CCC/C=N/c2ccc(OC(=O)Nc3ccc(Cc4ccc(NC(*)=O)cc4)cc3)cc2)cc1` (repeat unit), 76.00 °C. In the case of `*Oc1ccc(C(=O)Nc2ccc(Cc3ccc(NC(=O)c4ccc(Oc5ccc(C(=O)c6ccc(S(=O)(=O)c7ccc(C(=O)c8ccc(*)cc8)cc7)cc6)cc5)cc4)cc3)cc2)cc1` (repeat unit), the glass transition temperature came to 240.00 °C. The same measure for `*Oc1ccc(C(=O)Nc2ccc(Cc3ccc(NC(=O)c4ccc(Oc5nc(*)nc(Sc6ccccc6)n5)cc4)cc3)cc2)cc1` (repeat unit): 302.00 °C.

As to `*Oc1ccc(C(c2ccccc2)(c2ccccc2)c2ccc(Oc3ccc(C(=O)Nc4ccc(NC(=O)c5ccc(*)cc5)cc4)cc3)cc2)cc1` (repeat unit), the glass transition temperature came out at 254.00 °C. Under `*Oc1ccc(Oc2ccc(C(=O)Nc3ccc(Cc4ccc(NC(=O)c5ccc(*)cc5)cc4)cc3)cc2)cc1` (repeat unit) stands 216.00 °C.

As to `*c1ccc(-c2cc(-c3ccc(-c4ccccc4)cc3)cc(-c3ccc(N4C(=O)c5ccc(NC(=O)Nc6ccc(NC(=O)Nc7ccc8c(c7)C(=O)N(*)C8=O)cc6)cc5C4=O)cc3)n2)cc1` (repeat unit), the glass transition temperature worked out at 243.00 °C. Under `*c1ccc(C(=O)Nc2ccc(NC(=O)c3ccc(Oc4ccc(-c5nn(*)c(=O)c6ccccc56)c5ccccc45)cc3)cc2)cc1` (repeat unit) stands 347.50 °C; under `*c1ccc(C(=O)c2ccc(-n3nc(-c4ccc(Sc5ccc(-c6nn(*)c(=O)c7ccccc67)cc5)cc4)c4ccccc4c3=O)cc2)cc1` (repeat unit), 281.00 °C; under `*c1ccc(C(=O)c2ccc(-n3nc(-c4ccccc4)c4cc(Oc5ccc6c(-c7ccccc7)nn(*)c(=O)c6c5)ccc4c3=O)cc2)cc1` (repeat unit), 275.50 °C.

With `*c1ccc(Cc2ccc(N3C(=O)CC(Nc4ccc(Cc5ccc(NC6CC(=O)N(*)C6=O)cc5)cc4)C3=O)cc2)cc1` (repeat unit), the glass transition temperature stood at 239.00 °C. Under `*c1ccc(Cc2ccc(N3C(=O)CC(Nc4ccc(N(c5ccc(Nc6ccc([N+](=O)[O-])cc6)cc5)c5ccc(NC6CC(=O)N(*)C6=O)cc5)cc4)C3=O)cc2)cc1` (repeat unit) stands 324.00 °C.
